# Assay: Ratio of drug level in brain to plasma in Sprague-Dawley rat by HPLC and MS-MS method
# Assay type: ADME, cell-free
# Details: read-out: BPR
row,Compound,Kp
1,C[C@@H](Oc1nnc(-c2cn[nH]c(=O)c2)n1C)c1cc(-c2cccc(Cl)c2)on1,< 0.5
2,Cc1cccc(-c2cc([C@@H](C)Oc3nnc(-c4cn[nH]c(=O)c4)n3C)no2)c1,< 0.5
3,Cc1cccc(-n2nnc([C@@H](C)Oc3nnc(-c4cn[nH]c(=O)c4)n3C)n2)c1,< 0.5
4,Cn1c(OCc2cc(-c3cccc(Cl)c3)on2)nnc1-c1cc[nH]c(=O)c1,< 0.5
5,C[C@@H](Oc1nnc(-c2cc[nH]c(=O)c2)n1C)c1noc(-c2cccc(Cl)c2)n1,< 0.5
6,C[C@@H](Oc1nnc(-c2ccn(C)c(=O)c2)n1C)c1cc(-c2cccc(Cl)c2)on1,< 0.5
7,C[C@@H](Oc1nnc(-c2cn[nH]c(=O)c2)n1C)c1nnn(-c2cccc(Cl)c2)n1,< 0.5
8,C[C@@H](Oc1nnc(-c2cn[nH]c(=O)c2)n1C)c1noc(-c2cccc(Cl)c2)n1,< 0.5
9,C[C@@H](Oc1nnc(-c2cc[nH]c(=O)c2)n1C)c1nnn(-c2cccc(Cl)c2)n1,< 0.5
10,C[C@@H](Oc1nnc(-c2ccn(C)c(=O)c2)n1C)c1noc(-c2cccc(Cl)c2)n1,< 0.5
